# Values quoted from earlier work as cited in patent US10610489B2, “Pharmaceutical composition, pharmaceutical dosage form, process for their preparation, methods for treating and uses thereof” (Boehringer Ingelheim International GmbH, priority 2009, dated 2020).
# Test system: HbA1c
# Details: metformin on its own, in the diabetic
structure (smiles),measurement,value
"CN(C)C(=N)N=C(N)N [metformin, dimethyldiguanide]",average improvement in the HbA1c value,1.0-1.5%
